Assay results published in ChEMBL document CHEMBL3132859, “Synthesis and biological evaluation of a post-synthetically modified Trp-based diketopiperazine” (Medchemcomm, 2013).
Activity calls are given as the source filed them. The calls are words filed in the database; no cut-off is given here.

Key:
Assay type in all cases: functional, cell-based
HeLa [1] = experiment: Antiproliferative activity against human HeLa cells after 72 hrs by MTT assay
HT-29 [2] = experiment: Antiproliferative activity against human HT-29 cells after 72 hrs by MTT assay
A549 = experiment: Antiproliferative activity against human A549 cells after 72 hrs by MTT assay
SK-BR-3 = experiment: Antiproliferative activity against human SKBR3 cells after 72 hrs by MTT assay
HeLa [3] = experiment: Antiproliferative activity against human HeLa cells after 24 hrs by MTT assay
HT-29 [4] = experiment: Antiproliferative activity against human HT-29 cells after 24 hrs by MTT assay
MDA-MB-231 = experiment: Antiproliferative activity against human MDA-MB-231 cells after 72 hrs by MTT assay
CAL-27 = experiment: Antiproliferative activity against human CAL27 cells after 72 hrs by MTT assay

| Compound | Activity (HT-29 [2]) | Activity (A549) | Activity (SK-BR-3) | Activity (HT-29 [4]) | other results |
| --- | --- | --- | --- | --- | --- |
| O=C1N[C@@H](Cc2c(-c3ccc(Cl)cc3)[nH]c3ccccc23)C(=O)N2CCC[C@@H]12 | Active | Active | Active |  | IC50 (HeLa [1]): 52 µM |
| COC(=O)c1ccc(-c2[nH]c3ccccc3c2C[C@@H]2NC(=O)[C@@H]3CCCN3C2=O)cc1 | Active | Active | Active |  |  |
| COc1ccccc1-c1[nH]c2ccccc2c1C[C@@H]1NC(=O)[C@@H]2CCCN2C1=O |  |  |  | Active | Activity (HeLa [3]): Active |
| O=C1N[C@@H](Cc2c(-c3ccccc3Cl)[nH]c3ccccc23)C(=O)N2CCC[C@@H]12 |  |  |  | Active | Activity (HeLa [3]): Active |
| COc1ccc(-c2[nH]c3ccccc3c2C[C@@H]2NC(=O)[C@@H]3CCCN3C2=O)cc1 | Active | Active | Active |  |  |
| O=C1N[C@@H](Cc2c[nH]c3ccccc23)C(=O)N2CCC[C@@H]12 [BREVIANAMIDE F] |  |  |  |  | IC50 (HeLa [1]): > 200 µM |
| O=C1N[C@@H](Cc2c(-c3ccc(C(F)(F)F)cc3)[nH]c3ccccc23)C(=O)N2CCC[C@@H]12 | Active | Active | Active |  | IC50 (HeLa [1]): 26 µM; Activity (MDA-MB-231): Active; Activity (CAL-27): Active |
| O=C1N[C@H](Cc2c(-c3ccc(C(F)(F)F)cc3)[nH]c3ccccc23)C(=O)N2CCC[C@H]12 |  | Active |  |  | Activity (MDA-MB-231): Active; Activity (CAL-27): Active |
| O=C1N[C@@H](Cc2c(-c3cc(C(F)(F)F)cc(C(F)(F)F)c3)[nH]c3ccccc23)C(=O)N2CCC[C@@H]12 |  |  |  | Active |  |
| O=C1N[C@@H](Cc2c(-c3ccccc3C(F)(F)F)[nH]c3ccccc23)C(=O)N2CCC[C@@H]12 |  |  |  | Active | Activity (HeLa [3]): Active |
| Cc1ccc(-c2[nH]c3ccccc3c2C[C@@H]2NC(=O)[C@@H]3CCCN3C2=O)cc1 | Active | Active | Active |  |  |
